Consider 11 molecules from paper PMC5103216, “Novel Agonist Bioisosteres and Common Structure-Activity Relationships for The Orphan G Protein-Coupled Receptor GPR139” (Scientific Reports, 2016).

“And” between values parts separate entries of the source, which are not always exact repeats. Identical values can stand only once. Like-named read-outs stand apart in the source and are kept apart here.

Series [1] deals with T1, GPR139 (Homo sapiens, UniProt Q6DWJ6).
T1 sequence (Q6DWJ6 1-353): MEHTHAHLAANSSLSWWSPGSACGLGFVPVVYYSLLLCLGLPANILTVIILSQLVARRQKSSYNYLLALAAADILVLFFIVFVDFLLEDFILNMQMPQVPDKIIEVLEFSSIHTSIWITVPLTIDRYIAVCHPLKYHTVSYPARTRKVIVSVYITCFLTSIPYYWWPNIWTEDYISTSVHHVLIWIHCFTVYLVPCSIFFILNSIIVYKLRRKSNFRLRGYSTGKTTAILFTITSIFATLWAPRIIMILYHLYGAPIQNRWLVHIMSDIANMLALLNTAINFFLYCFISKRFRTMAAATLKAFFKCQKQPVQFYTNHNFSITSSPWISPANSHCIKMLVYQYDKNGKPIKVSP
Put plainly: IP-One HTRF assay measuring Gq activation in CHO-139. The class given is cell-based. Particulars: for EC50: CHO-139, 20 mM LiCl; for agonist type: IP-One assay, compared to compound 1a. As to the method:
(§1) Figure 3 IP-One HTRF® assay measuring Gq activation. Concentration-response curves of 1a, 7c (racemic), L-Trp, L-Phe, DL43, DL126, DL24, DL22, DL132 and DL130 on (A) CHO-139 and (B) CHO-M1 in the IP-One assay (final conc of LiCl = 20 mM). The dotted line represent the [IP1] response from (A) 10 μM 1a and (B) 1 μM carbachol, which is an agonist for the muscarinic acethylcholine receptor M1 that activates the Gq coupled pathway. The graphs are means ± SEM based on three independent experiments performed in triplicates.
(§2) The IP-One assay was performed as described in the work by Thomsen et al.[28], with few modifications. Breifly, CHO-139 and CHO-M1 were detached and re-suspended to a concentration of 10 million cells/mL. 5 μL 2x concentrated compound (+40 mM LiCl) and 5 μL cell suspension (50,000 cells/well) was mixed. The plate was sealed and incubated at 37 °C for 1 hour. Next, 10 μL detection reagents (lysis buffer containing 2.5% Eu^3+-anti-IP1 antibody and 2.5% IP1-d2) was added and the plate was incubated for 1 hour at room temperature. The plate was read on an Envision (PerkinElmer, Waltham, MA, USA). The time resolved-fluorescence resonance energy transfer (TR-FRET) 665 nm/615 nm ratio, which is inversely proportional to the inositol monophosphate (IP1) accumulation, was used to determine the concentration of the IP1 response.
(In TR-FRET formats the signal depends on donor and acceptor labels being close together.)

Series [2] concerns the target T2, M1 receptor (Homo sapiens, UniProt P11229).
T2 construct: host or cells: CHO-k1
T2 sequence (P11229 1-460): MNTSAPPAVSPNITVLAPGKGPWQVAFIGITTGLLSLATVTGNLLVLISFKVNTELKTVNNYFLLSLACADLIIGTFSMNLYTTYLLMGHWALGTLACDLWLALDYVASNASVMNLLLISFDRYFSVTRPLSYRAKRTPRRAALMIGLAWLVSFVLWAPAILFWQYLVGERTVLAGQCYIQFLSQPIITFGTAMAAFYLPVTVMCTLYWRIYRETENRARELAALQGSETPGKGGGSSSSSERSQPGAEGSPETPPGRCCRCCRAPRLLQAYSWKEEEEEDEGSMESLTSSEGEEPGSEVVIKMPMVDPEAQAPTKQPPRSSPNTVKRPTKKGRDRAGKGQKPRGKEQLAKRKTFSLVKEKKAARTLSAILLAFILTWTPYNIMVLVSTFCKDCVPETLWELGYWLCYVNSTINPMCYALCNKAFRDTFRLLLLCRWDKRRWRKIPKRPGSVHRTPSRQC
Put plainly: IP-One HTRF assay in CHO-M1 (control). The class given is cell-based. As to the method: as §1, §2

The target in series [3] is T1, GPR139. Briefly: cAMP dynamic 2 assay measuring Gs activation in CHO-139. The class given is cell-based. As to the method:
(§3) The cAMP assay was performed as described in the work by Thomsen et al.[28] with few modifications. Breifly, CHO-139 and CHO-M1 was detached and resuspended to a concentration of 1 million cells/mL. 5 μL 2x concentrated compound (for Gs: +100 μM IBMX and for Gi: +100 μM IBMX +10 μM forskolin (Fsk)) and 5 μL cell suspension (5,000 cells/well) was mixed. The plate was sealed and incubated at room temperature for 30 min. Next, 10 μL detection reagents (lysis buffer containing 2.5% Eu^3+-anti-cAMP antibody and 2.5% cAMP-d2) was added and the plate was incubated for 1 hour at room temperature. The plate was read on an Envision (PerkinElmer, Waltham, MA, USA). The TR-FRET 665 nm/615 nm ratio, which is inversely proportional with the cAMP production, was used to determination the concentration of the cAMP response. […]
(§4) Supplementary Figure 1. cAMP dynamic 2 assay measuring Gs activation. 5,000 cells/well of CHO-139 (pink bars) or CHO-M1 (blue bars) cells are
(§5) incubated with the indicated compounds for 30 min at room temperature in the presence of 50 µM IBMX. 5 µM and 10 µM forskolin (Fsk) serves as positive
(§6) controls. The responses are one representative out of at two independent experiments performed in triplicates. Data points are means ± SD. […]
(§7) Data points are means ± SD.

Series [4] has as its target T2, M1 receptor. Briefly: cAMP dynamic 2 assay measuring Gs activation in CHO-M1 (control). The class given is cell-based. As to the method: as §3, §4, §5, §6, §7
The target in series [5] is T1, GPR139. Put plainly: cAMP dynamic 2 assay measuring Gi activation (forskolin) in CHO-139. The class given is cell-based. Particulars: for Inhibition of the cAMP response induced by 5 μM forskolin (Gi), in words: CHO-139. As to the method:
as §3
(§8) Supplementary Figure 2. cAMP dynamic 2 assay measuring Gi activation. 5,000 cells/well of CHO-139 (pink bars) or CHO-M1 (blue bars) cells are
(§9) incubated with the indicated compounds for 30 min at room temperature in the presence of 50 µM IBMX and 5 uM Fsk (expect “buffer (-Fsk) where only 50
(§10) µM IBMX is present). The straight line indicate the level of cAMP upon activation with 5 uM Fsk, and the grey area ±10% of the response. The responses are
(§11) one representative out of at two independent experiments performed in triplicates. Data points are means ± SD.

Series [6] has as its target T1, GPR139. Set-up: method as in ref 13, 14 (Dvorak et al.). Particulars: relative to L-Trp; 14 (Dvorak et al.); cited from earlier work.
For series [7] the following is noted: in vivo; cited from earlier work.
The conditions of series [8]: not told; cited from earlier work.
Series [9] deals with T1, GPR139. Set-up: method as in ref 11 (Shi et al.). Particulars: ref 11 (Shi et al.), cited from earlier work; for EC50: GPR139 agonist potency.
Series [10] concerns the target T1, GPR139. Put plainly: GPR139 agonist potency, data from Shi et al. (Lundbeck series). Type of series: cell-based.
The conditions of series [11]: in vivo; cited from earlier work. This is another data set of the same source.
In series [12] the target is T1, GPR139. Put plainly: GPR139 agonist potency, data from Dvorak et al. (Janssen R&D series). The class given is cell-based.
Series [13] has as its target T1, GPR139. Set-up: method as in PMID 24826842. Particulars: GPR139 activation; cited from earlier work.
The target in series [14] is T1, GPR139. Set-up: method as in ref 6, 13 (Liu et al.). Particulars: [35S]GTPγS binding, membranes from COS7 cells; 13 (Liu et al.); cited from earlier work. For orientation: Binding of GTPγS marks nucleotide exchange on a G protein.
The target of series [15] is T1, GPR139. On the set-up: method as in ref 6, 13 (Liu et al.). Particulars: concentration-dependent calcium response in HEK293 cells; 13 (Liu et al.); cited from earlier work.
For series [16], the target named is T1, GPR139. On the set-up: method as in ref 6, 13 (Liu et al.). Particulars: calcium mobilization in HEK293; 13 (Liu et al.); cited from earlier work. On the technique in general: Calcium flux is commonly read through the fluorescence of an indicator in the cells.
Series [17] concerns the target T2, M1 receptor. Put plainly: cAMP dynamic 2 assay measuring Gi activation (forskolin) in CHO-M1 (control). Type of series: cell-based. Particulars: CHO-M1, high concentrations; unspecific response. As to the method: as §3, §8, §9, §10, §11
Series [18] addresses T1, GPR139. Set-up: method as in ref 15 (Hitchcock et al.). Particulars: ref 15 (Hitchcock et al.); cited from earlier work.

One may read the EC50 as the concentration at which the effect is half-maximal. The term Emax denotes the maximal effect, on the per cent scale that the assay sets. For the molecule `CC(NC(=O)CNC(=O)c1cccc(Cl)c1)c1ccccc1` (racemic) [7c (racemic)], the EC50 on GPR139 [1] (IP-One HTRF assay) stood at 0.49 µM. Further, the Emax on GPR139 [1] (IP-One HTRF assay, relative to compound 1a, 7c at 10 μM and L-Trp at 20 mM (highest concentration tested)) is recorded as 120^(*) %. At GPR139 [1], the agonist type entry is recorded as “super-agonists”.
Turning to `C[C@H](NC(=O)CNC(=O)c1cccc(Cl)c1)c1ccccc1` (racemic) [7c], at M1 receptor [2], the “IP1 response in CHO-M1 cells” value is recorded as “no response is seen in CHO-M1 cells”. The “Gs response (cAMP)” value on GPR139 [3] and on M1 receptor [4] was “None of the tested compounds induced Gs response” in each case. In addition, on GPR139 [5], the “Inhibition of the cAMP response induced by 5 μM forskolin (Gi), in words” value (from here on “Inhibition of the cAMP response induced”) is reported as “none of the tested compounds were able to inhibit the cAMP response”. Further, the Emax at GPR139 [6] is recorded as 138%. Besides, the “brain to plasma ratio” value in [7] is 1.2. The efflux potential entry in series [8] is listed as “no efflux potential”.
Regarding `COc1cc(OC)cc(C(=O)NNC(=O)Nc2cccc3ccccc23)c1` [1a], the EC50 on GPR139 [1] (IP-One HTRF assay) came out at 1.05 µM. Further, the “IP1 response in CHO-M1 cells” value at M1 receptor [2] is reported as “no response is seen in CHO-M1 cells”. The “Gs response (cAMP)” value at GPR139 [3] and at M1 receptor [4] was “None of the tested compounds induced Gs response” in each case. For the same molecule, the “Inhibition of the cAMP response induced” value at GPR139 [5] is “none of the tested compounds were able to inhibit the cAMP response”. For the same molecule, the Emax on GPR139 [9] is given as 100%.
As to `COc1ccccc1C(=O)NNC(=O)Nc1cccc2ccccc12` [1c], the “fold reduction of potency vs. 1a” value on GPR139 [10] is given as ~ 16 fold. Also, on GPR139 [9], the EC50 was 0.62 µM and the Emax was 79%.
With `COc1cccc(C(=O)NNC(=O)Nc2cccc3ccccc23)c1` [1f], the “fold reduction of potency vs. 1a” value on GPR139 [10] is recorded as ~ 26 fold. For the same molecule, at GPR139 [9], the EC50 was 1 µM and the Emax is 100%.
For the molecule `COc1cc(OC)cc(C(=O)NNC(=O)Cc2cccc3ccccc23)c1` [1s], at GPR139 [10], the “fold reduction of potency vs. 1a” value was 2 fold and ~ 2.4 fold. On GPR139 [9], the EC50 is 0.088 µM and the Emax is 95%. In addition, in series [11], the brain exposure entry was “failed to increase brain exposure due to low plasma levels”.
For the molecule `C[C@H](NC(=O)CNC(=O)c1ccccc1Cl)c1ccccc1` [7b], the “fold reduction of potency vs. 7c” value on GPR139 [12] is ~ 3 fold. Besides, on GPR139 [6], the maximum response (Emax) is 120%.
Turning to `N[C@@H](Cc1ccccc1)C(=O)O` [L-Phe, L-Phenylalanine], the EC50 on GPR139 [1] (IP-One HTRF assay) is 4450 µM; at GPR139 [13] it was 320 µM; on GPR139 [14], 31 µM; on GPR139 [15] it was 60 µM; on GPR139 [16], 411 µM. Further, the “IP1 response in CHO-M1 cells” value at M1 receptor [2] was “no response is seen in CHO-M1 cells”. For the same molecule, the “Gs response (cAMP)” value on GPR139 [3] and on M1 receptor [4] was “None of the tested compounds induced Gs response” in each case. Further, the “Inhibition of the cAMP response induced” value at GPR139 [5] is on record as “none of the tested compounds were able to inhibit the cAMP response”.
Turning to `N[C@@H](Cc1c[nH]c2ccccc12)C(=O)O` [L-Trp, L-Tryptophan], the EC50 on GPR139 [1] (IP-One HTRF assay) is roughly 8500 µM; at GPR139 [13], 220 µM; at GPR139 [14], 26 µM; on GPR139 [15], 49 µM; at GPR139 [16], 287 µM. Also, the agonist type result at GPR139 [1] is listed as “super-agonists”. The “IP1 response in CHO-M1 cells” value at M1 receptor [2] is “no response is seen in CHO-M1 cells”. Also, the “Gs response (cAMP)” value at GPR139 [3] and on M1 receptor [4] was “None of the tested compounds induced Gs response” throughout. Moreover, the “Inhibition of the 5 μM forskolin induced cAMP response” value on GPR139 [5] (CHO-139, high concentrations) was “more than 10%”; at M1 receptor [17], “more than 10%”.
With `COc1ccc(C(C)NC(=O)Cn2nnc3cc(C)ccc3c2=O)cc1` (centres unmarked) [compound 35], the EC50 at GPR139 [18] was 0.042 µM.
Turning to `COc1ccc(C(C)NC(=O)Cn2nnc3cc(OC)ccc3c2=O)cc1` (centres unmarked) [compound 37], the EC50 on GPR139 [18] is 0.037 µM.
